Values of other authors, collected in publication PMC3807987 (Pharmacognosy Research, 2013).
Read-outs that look alike come from different tables or passages of the source.

Tested on: CYP2D6

CYP2D6 inhibition strength (dose of 50 mg): mild inhibitor
CYP2D6 inhibition strength (dose of 200 mg): potent inhibitor
SMILES: CN[C@H]1CC[C@@H](c2ccc(Cl)c(Cl)c2)c2ccccc21 [Sertraline]
